Measurements taken from patent US8778958B2, “Synthesis of metabolically stable agents for alcohol and drug abuse” (priority 2008, dated 2014).
Where two headings read alike, the source gives them in different places.

Tests used:
μ-opioid receptor [1] = target: T1, μ-opioid receptor (Mus musculus, UniProt P42866); test: biochemical; set-up: species or system human
T1 construct: FLAG; expressed in transfected cells

[2] = target: T2, NOP (nociceptin) receptor (Homo sapiens, UniProt P41146); test: Stimulation of [35S]GTPγS binding (agonist activity), NOP; conditions: read-out: EC50, NOP, stimulation of [35S]GTPγS binding; cells printed in μM
μ-opioid receptor [3] = target: T1, μ-opioid receptor; test: biochemical; assay type: biochemical, human
CYP2C9 = CYP2C9 (Homo sapiens, UniProt P11712); test: CYP inhibition, CYP2C9 (diclofenac hydroxylase); conditions: 10 μM test compound; ND = no detectable inhibition
δ-opioid receptor [4] = target: T3, δ-opioid receptor (Mus musculus, UniProt P32300); test: biochemical; set-up: species or system human
T3 construct: hemagglutinin (HA); expressed in transfected cells

κ-opioid receptor [5] = target: T4, κ-opioid receptor (Mus musculus, UniProt P33534); test: biochemical; set-up: species or system human
T4 construct: FLAG; expressed in transfected cells

[6] = target: T2, NOP (nociceptin) receptor; test: Inhibition of basal [35S]GTPγS binding (inverse agonism), NOP; assay type: biochemical; set-up: FLAG; expressed in transfected cells
CYP2C19 = CYP2C19 (Homo sapiens, UniProt P33261); test: CYP inhibition, CYP2C19 (Vivid Blue substrate); conditions: 10 μM test compound; ND = no detectable inhibition
CYP2D6 = CYP2D6 (Homo sapiens, UniProt P10635); test: CYP inhibition, CYP2D6 (Vivid Blue substrate); conditions: 10 μM test compound; ND = no detectable inhibition
[7] = target: T2, NOP (nociceptin) receptor
δ-opioid receptor [8] = target: T3, δ-opioid receptor; test: biochemical; assay type: biochemical, human
CYP3A4 = CYP3A4 (Homo sapiens, UniProt P08684); test: CYP inhibition, CYP3A4 (testosterone 6-hydroxylation); conditions: 10 μM test compound; ND = no detectable inhibition
CYP2B6 = target: T5, CYP2B6 (Homo sapiens, UniProt P20813); test: CYP inhibition, CYP2B6 (Vivid Blue substrate); conditions: 10 μM test compound; ND = no detectable inhibition
T5 sequence (P20813 1-491): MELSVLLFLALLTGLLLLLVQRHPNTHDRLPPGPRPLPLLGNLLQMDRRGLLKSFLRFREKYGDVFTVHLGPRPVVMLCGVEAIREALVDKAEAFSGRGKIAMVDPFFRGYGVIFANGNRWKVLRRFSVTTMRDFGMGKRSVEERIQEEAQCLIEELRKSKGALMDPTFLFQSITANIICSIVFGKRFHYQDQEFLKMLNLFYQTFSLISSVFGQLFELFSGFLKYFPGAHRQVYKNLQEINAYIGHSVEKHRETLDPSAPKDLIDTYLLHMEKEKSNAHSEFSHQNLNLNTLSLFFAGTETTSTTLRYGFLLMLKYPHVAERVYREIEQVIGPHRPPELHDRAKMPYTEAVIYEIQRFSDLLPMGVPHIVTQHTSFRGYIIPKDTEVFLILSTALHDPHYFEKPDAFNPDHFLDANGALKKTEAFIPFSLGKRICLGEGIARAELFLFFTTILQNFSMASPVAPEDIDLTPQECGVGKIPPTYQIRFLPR

κ-opioid receptor [9] = target: T4, κ-opioid receptor; test: biochemical; assay type: biochemical, human
[10] = Metabolism of compound 6 in human liver microsomes; conditions: going from pH 7.4 to pH 10
Procedure: For analysis, 50 μg of 6,6-N-oxide and bromobenzoic acid was used as TLC standards and the UV-vis bands corresponding to these regions were scraped and placed in scintillation vials for counting and quantification. For the HPLC assay, the incubation was stopped by the addition of isopropanol/CH2Cl2 (3/1, v/v), mixed thoroughly and the organic layer was separated by centrifugation. […] The analytes were quantified on the basis of HPLC peak height.

[11] = Metabolic stability, mouse liver microsomes; conditions: mouse, microsomes, pH 7.4
Procedure: (§1) A typical assay mixture contained rat or mouse liver microsomes or human liver S-9 (0.4-0.5 mg of protein), 100 μM potassium phosphate buffer (pH 7.4), 40 μM test compound, an NADPH-generating system consisting of 0.5 mM NADP^+, 0.5 mM glucose-6-phosphate, 5 IU/mL glucose-6-phosphate dehydrogenase, 1 mg/mL DETAPAC and 7 mM MgCl2 for a final incubation volume of 0.1 mL^23. […] After centrifugation at 13,000 rpm for 5 min, the organic fraction was collected and the solvent was removed with a stream of argon. The residue was reconstituted in methanol (200 L), centrifuged at 13,000 rpm for 5 min and the supernatant was analyzed by high-performance liquid chromatography with an Axxi-chrom (straight-phase) silica column (4.6 mm×250 mm, 5 m) or with a Supelco (reverse-phase) HS F5 pentafluorophenyl column (4.6 mm×250 mm, 5 m) as described above.

[12] = Metabolic stability, human liver S-9; conditions: human, s9, pH 7.4
Procedure: as §1

κ-opioid receptor [13] = system: T6, κ-opioid receptor; test: biochemical; assay type: biochemical, human; conditions: read-out: Emax, κ, inhibition of basal [35S]GTPγS binding
T6 construct: FLAG; expressed in transfected cells
T6 sequence (P33534 whole entry): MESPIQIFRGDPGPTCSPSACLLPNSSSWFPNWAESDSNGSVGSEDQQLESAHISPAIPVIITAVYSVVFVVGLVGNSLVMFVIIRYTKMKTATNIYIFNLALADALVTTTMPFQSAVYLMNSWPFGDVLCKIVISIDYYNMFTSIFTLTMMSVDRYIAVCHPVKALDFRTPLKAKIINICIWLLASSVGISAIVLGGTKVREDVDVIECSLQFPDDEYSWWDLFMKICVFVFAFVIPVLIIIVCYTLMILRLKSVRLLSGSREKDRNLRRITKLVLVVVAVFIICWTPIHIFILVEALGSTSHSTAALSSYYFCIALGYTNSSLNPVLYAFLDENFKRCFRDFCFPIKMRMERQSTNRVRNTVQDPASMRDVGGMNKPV

[14] = percentage of basal [35S]GTPγS binding stimulation

T2 sequence (P41146 whole entry): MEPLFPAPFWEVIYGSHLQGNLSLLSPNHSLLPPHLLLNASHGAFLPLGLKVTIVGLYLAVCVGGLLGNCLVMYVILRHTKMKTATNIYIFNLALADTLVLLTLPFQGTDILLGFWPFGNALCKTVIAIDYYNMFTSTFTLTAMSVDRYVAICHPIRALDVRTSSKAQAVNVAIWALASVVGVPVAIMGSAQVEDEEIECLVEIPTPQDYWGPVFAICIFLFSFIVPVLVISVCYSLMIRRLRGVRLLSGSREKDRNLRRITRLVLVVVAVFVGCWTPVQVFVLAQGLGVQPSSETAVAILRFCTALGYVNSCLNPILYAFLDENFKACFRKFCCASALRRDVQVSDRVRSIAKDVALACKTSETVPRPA
T3 sequence (P32300 whole entry): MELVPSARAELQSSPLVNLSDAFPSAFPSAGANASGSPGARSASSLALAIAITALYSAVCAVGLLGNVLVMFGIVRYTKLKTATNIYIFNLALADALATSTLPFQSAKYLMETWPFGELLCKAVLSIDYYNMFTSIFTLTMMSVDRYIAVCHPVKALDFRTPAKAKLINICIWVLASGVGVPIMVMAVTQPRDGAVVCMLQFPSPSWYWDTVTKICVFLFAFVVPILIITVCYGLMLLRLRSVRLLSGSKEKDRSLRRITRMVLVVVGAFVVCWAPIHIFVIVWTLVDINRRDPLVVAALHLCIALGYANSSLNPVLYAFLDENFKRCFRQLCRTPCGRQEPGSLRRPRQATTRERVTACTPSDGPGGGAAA
T1 sequence (P42866 whole entry): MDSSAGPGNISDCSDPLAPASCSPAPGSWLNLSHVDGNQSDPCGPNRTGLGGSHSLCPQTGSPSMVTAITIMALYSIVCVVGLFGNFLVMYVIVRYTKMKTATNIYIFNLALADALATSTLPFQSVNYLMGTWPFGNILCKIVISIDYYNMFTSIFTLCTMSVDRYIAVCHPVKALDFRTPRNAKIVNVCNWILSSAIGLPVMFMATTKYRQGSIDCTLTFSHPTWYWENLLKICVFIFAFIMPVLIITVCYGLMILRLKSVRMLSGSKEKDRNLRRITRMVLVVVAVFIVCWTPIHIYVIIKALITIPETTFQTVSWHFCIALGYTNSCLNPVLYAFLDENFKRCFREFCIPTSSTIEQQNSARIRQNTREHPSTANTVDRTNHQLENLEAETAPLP
T4 sequence (P33534 whole entry): as the sequence (P33534 whole entry) above
Chain of CYP3A4 (P08684 whole entry): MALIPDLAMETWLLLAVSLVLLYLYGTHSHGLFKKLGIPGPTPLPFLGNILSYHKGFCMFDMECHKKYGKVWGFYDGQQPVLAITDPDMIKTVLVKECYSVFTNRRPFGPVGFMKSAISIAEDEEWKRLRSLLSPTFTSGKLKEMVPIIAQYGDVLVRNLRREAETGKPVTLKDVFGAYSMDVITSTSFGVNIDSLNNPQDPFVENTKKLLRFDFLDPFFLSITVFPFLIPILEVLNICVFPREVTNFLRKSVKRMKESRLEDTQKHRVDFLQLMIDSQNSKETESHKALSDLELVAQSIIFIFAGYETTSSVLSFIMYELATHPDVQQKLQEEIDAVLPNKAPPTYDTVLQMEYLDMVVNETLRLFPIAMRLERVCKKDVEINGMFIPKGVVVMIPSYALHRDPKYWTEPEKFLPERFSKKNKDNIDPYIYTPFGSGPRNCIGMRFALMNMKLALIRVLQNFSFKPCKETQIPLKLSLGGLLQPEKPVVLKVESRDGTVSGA
Chain of CYP2C19 (P33261 whole entry): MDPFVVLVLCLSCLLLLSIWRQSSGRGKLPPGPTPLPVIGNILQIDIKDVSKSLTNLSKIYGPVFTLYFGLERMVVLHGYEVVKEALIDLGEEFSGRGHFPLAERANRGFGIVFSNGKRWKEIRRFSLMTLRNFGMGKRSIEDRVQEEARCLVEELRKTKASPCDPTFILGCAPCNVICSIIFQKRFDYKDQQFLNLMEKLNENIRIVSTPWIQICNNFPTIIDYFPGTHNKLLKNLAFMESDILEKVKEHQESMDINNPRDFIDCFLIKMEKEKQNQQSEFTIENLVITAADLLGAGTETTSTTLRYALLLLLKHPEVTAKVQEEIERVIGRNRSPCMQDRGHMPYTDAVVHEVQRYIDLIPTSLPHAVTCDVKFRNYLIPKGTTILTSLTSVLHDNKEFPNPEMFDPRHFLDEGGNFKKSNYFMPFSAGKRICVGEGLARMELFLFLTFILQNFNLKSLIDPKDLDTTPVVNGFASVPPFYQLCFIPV
Chain of CYP2C9 (P11712 whole entry): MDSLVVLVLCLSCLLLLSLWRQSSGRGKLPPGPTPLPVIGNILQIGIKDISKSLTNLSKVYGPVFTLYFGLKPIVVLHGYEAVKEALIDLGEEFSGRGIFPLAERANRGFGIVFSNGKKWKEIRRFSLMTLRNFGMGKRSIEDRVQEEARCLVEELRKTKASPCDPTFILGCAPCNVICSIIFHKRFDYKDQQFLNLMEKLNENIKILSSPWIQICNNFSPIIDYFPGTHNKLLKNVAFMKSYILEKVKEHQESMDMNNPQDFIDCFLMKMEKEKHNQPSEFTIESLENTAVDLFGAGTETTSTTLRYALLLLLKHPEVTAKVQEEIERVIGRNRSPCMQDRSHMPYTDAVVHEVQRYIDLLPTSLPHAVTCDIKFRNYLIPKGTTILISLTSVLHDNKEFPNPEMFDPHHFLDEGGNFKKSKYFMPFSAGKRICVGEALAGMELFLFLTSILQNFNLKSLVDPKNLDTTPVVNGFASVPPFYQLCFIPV
Chain of CYP2D6 (P10635 whole entry): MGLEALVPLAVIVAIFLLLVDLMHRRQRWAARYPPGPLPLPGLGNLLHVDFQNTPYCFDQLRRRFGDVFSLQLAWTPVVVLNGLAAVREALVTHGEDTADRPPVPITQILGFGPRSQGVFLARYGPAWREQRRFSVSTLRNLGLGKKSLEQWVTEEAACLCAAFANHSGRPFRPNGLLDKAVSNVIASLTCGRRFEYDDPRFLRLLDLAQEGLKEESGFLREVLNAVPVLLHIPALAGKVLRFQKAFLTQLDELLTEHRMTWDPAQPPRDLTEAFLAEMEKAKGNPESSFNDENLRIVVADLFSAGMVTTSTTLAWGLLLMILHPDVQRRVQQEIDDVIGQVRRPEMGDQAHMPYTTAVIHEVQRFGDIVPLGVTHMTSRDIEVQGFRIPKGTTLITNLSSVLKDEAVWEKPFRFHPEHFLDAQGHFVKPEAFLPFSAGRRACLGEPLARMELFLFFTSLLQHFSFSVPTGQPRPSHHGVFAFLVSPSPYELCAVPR

**Q.** Which “Emax, μ, stimulation of [35S]GTPγS binding” value (μ-opioid receptor [1]; [14]) does the source give for `O=C(N[C@@H]1CC[C@@]2(O)[C@H]3Cc4ccc(O)c5c4[C@@]2(CCN3CC2CC2)[C@H]1O5)c1ccc(Cl)c(Cl)c1` [Compound 9, 6-β-(3′,4′-Dichloro)benzamido-14-hydroxy-17-(cyclopropylmethyl)nordesmorphine] here?
**A.** 85 ± 7.4%

**Q.** What about the EC50 [2] of the same molecule?
**A.** > 10 µM

**Q.** And the “Emax, μ, inhibition of basal [35S]GTPγS binding” value (μ-opioid receptor [3])?
**A.** 0%

**Q.** And the “Percent Inhibition CYP2C9” value (CYP2C9)?
**A.** 7%

**Q.** And the “Emax, δ, stimulation of [35S]GTPγS binding” value (δ-opioid receptor [4]; [14])?
**A.** 85 ± 35%

**Q.** What about the “Emax, κ, stimulation of [35S]GTPγS binding” value (κ-opioid receptor [5]; [14]) of the same molecule?
**A.** 80 ± 7.4%

**Q.** What about the EC50 [6] of the same molecule?
**A.** 0.1 nM

**Q.** And the “Emax, NOP, inhibition of basal [35S]GTPγS binding” value [6]?
**A.** 87 ± 6.9%

**Q.** And the “Percent Inhibition CYP2C19” value (CYP2C19)?
**A.** 39%

**Q.** What about the “Percent Inhibition CYP2D6” value (CYP2D6) of the same molecule?
**A.** 10%

**Q.** What about the Emax [7] of the same molecule?
**A.** 0%

**Q.** What about the “Emax, δ, inhibition of basal [35S]GTPγS binding” value (δ-opioid receptor [8]) of the same molecule?
**A.** 0%

**Q.** And the “Percent Inhibition CYP3A4” value (CYP3A4)?
**A.** 11%

**Q.** And the “Percent Inhibition CYP2B6” value (CYP2B6)?
**A.** 5%

**Q.** And the “Emax, κ, inhibition of basal [35S]GTPγS binding” value (κ-opioid receptor [9])?
**A.** 0%

**Q.** For `O=C(N[C@@H]1CC[C@@]2(O)[C@H]3Cc4ccc(O)c5c4[C@@]2(CCN3CC2CC2)[C@H]1O5)c1ccc(Br)cc1` [Compound 6, 6-β-(4′-Bromo)benzamido-14-hydroxy-17-(cyclopropylmethyl) nordesmorphine], which “Rate of N-oxide formation, dependence on pH” value [10] is on record?
**A.** the rate doubled

**Q.** What about the “Emax, μ, stimulation of [35S]GTPγS binding” value (μ-opioid receptor [1]) of the same molecule?
**A.** 38 ± 4.3%

**Q.** And the Emax (μ-opioid receptor [1]; read-out: Emax, μ, stimulation of [35S]GTPγS binding)?
**A.** 28 to 63%

**Q.** What about the Emax (μ-opioid receptor [3]; read-out: Emax, μ, inhibition of basal [35S]GTPγS binding) of the same molecule?
**A.** 0%

**Q.** What about the “Emax, δ, stimulation of [35S]GTPγS binding” value (δ-opioid receptor [4]) of the same molecule?
**A.** 46 ± 3.7%

**Q.** What about the Emax (δ-opioid receptor [4]; read-out: Emax, δ, stimulation of [35S]GTPγS binding) of the same molecule?
**A.** 28 to 63%

**Q.** And the half-life at 40 μM [11]?
**A.** > 112 min

**Q.** And the “Emax, κ, stimulation of [35S]GTPγS binding” value (κ-opioid receptor [5])?
**A.** 42 ± 3.9%

**Q.** What about the Emax (κ-opioid receptor [5]; read-out: Emax, κ, stimulation of [35S]GTPγS binding) of the same molecule?
**A.** 28 to 63%

**Q.** What about the EC50 [6] of the same molecule?
**A.** 94 ± 33 nM

**Q.** What about the Emax ([6]; read-out: Emax, NOP, inhibition of basal [35S]GTPγS binding) of the same molecule?
**A.** 92 ± 7.4%

**Q.** What about the Emax [7] of the same molecule?
**A.** 0%

**Q.** And the half-life at 40 μM [12]?
**A.** > 112 min

**Q.** And the Emax (δ-opioid receptor [8]; read-out: Emax, δ, inhibition of basal [35S]GTPγS binding)?
**A.** 35 ± 4.8%

**Q.** What about the Emax (κ-opioid receptor [13]) of the same molecule?
**A.** 0%
